According to PMC11180795 (Frontiers in Pharmacology, 2024):

Assays:
[1] = test system: RAW 264.7 macrophage cells; set-up: method as in Sukandar et al., 2023; conditions: final concentration of 100 μM, ref Sukandar et al., 2023; cited from earlier work
[2] = test system: NO production; set-up: method as in Liu et al., 2016; conditions: ref Liu et al., 2016; read-out: IC50, inhibition of NO production; cited from earlier work
[3] = Cytotoxicity MTT assay on RAW 264.7 cells; format: cell-based, Murine; conditions: mouse, RAW 264.7 macrophage cells, 48 h incubation, read-out: IC50, cytotoxic effect on RAW264.7 cells
Description: Murine macrophage RAW 264.7 cell line obtained from the American Type Culture Collection (Rockville, MD, United States) was maintained in DMEM supplemented with 10% fetal calf serum (FCS) and 1% penicillin/streptomycin/fungizone (PSF) under standard cell culture conditions at 37°C and 5% CO2 in a humidified environment.
The cytotoxic effect of compounds on RAW 264.7 cells was assessed using the 3-(4, 5-dimethylthiazol-2-yl)-2, 5-diphenyl tetrazolium bromide (MTT) assay as established by Mosmann ([Mosmann, 1983]) with slight modifications. Briefly, cells were seeded at a density of 1 × 10^5 cells/mL (100 µL) in 96-well microtitre plates and incubated at 37°C and 5% CO2 in a humidified environment. After 24 h incubation, 100 µL of compounds (at concentration ranged from to 250 μM–1.95 µM) were added to the wells containing cells and further incubated for 48 h in a CO2 incubator. A suitable control (untreated cells) was included and doxorubicin was used as a positive reference. Thereafter, the medium in each well was aspirated from the cells, which were then washed with PBS, and finally fresh medium (200 µL) was added to each well. Then, 30 µL of MTT (5 mg/mL in PBS) was added to each well and the plates were incubated at 37°C for 4 h. The medium was aspirated from the wells and DMSO was added to solubilize the formed formazan crystals. The absorbance was read at 570 nm (SpectraMax 190, Molecular devices). The percentage of cell inhibition was calculated with reference to the control (untreated cells taken as 100% viability). Then, the IC50 values of plant compounds showing more than 50% cell growth inhibition were calculated by plotting the percentage inhibition against the concentration.

| Compound | IC50 [2] [µM] | IC50 at 48 h [3] [µM] | also measured |
| --- | --- | --- | --- |
| CC12CCC3C1C(c1c(cc(O)c(C(=O)c4ccccc4)c1O)O2)C3(C)C (stereo not shown) [clusiacyclol A] |  |  | NO inhibition [1]: over 85%; cytotoxicity (in words) [1]: without obvious cytotoxicity |
| garcinoxanthone B | 11.3 |  |  |
| CC(C)=CCCC1(C)C=Cc2c(cc3oc4c(O)ccc(O)c4c(=O)c3c2O)O1 (stereo not shown) [Compound 3, Smeathxanthone B] |  | > 100 | melting point: 187 to 189 °C |
| garcinoxanthone C | 18 |  |  |
| COc1cccc2c1C(=O)c1c(O)c3c(c(O)c1C2=O)C[C@@](O)(C(=O)CO)C[C@@H]3O[C@H]1C[C@H](N)[C@H](O)[C@H](C)O1 [Doxorubicin, doxorubicin, reference compound] |  | 4.63 |  |
